Reference: patent US20250000855A1, “USE OF APOMORPHINE AS THERAPEUTIC AGENT FOR NECROPTOSIS-RELATED DISEASES” (INDUSTRY-ACADEMIC COOPERATION FOUNDATION, YONSEI UNIVERSITY, priority 2021, published 2025)

Experiments:
MLKL protein = target: T1, MLKL protein (Homo sapiens, UniProt Q8NB16); experiment: Surface plasmon resonance (SPR) analysis, binding to MLKL protein; settings: MLKL immobilized on CM5 chip, Biacore T200, 25° C., 10 mM HEPES pH 7.4
T1 construct: purchased Abcam ab241453
T1 sequence (Q8NB16 1-471): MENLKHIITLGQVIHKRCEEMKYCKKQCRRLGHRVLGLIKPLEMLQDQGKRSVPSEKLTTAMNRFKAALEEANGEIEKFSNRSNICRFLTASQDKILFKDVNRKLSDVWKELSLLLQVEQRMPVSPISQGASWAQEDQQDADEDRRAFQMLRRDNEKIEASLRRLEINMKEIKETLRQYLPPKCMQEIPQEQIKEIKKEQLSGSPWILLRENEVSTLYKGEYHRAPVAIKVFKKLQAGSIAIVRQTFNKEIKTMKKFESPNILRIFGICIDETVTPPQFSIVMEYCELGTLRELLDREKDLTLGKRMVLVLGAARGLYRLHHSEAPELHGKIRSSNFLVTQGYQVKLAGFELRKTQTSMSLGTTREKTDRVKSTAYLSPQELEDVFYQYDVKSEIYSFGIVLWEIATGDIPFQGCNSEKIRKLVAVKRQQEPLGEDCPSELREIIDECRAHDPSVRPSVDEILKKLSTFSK
Method: The interaction between MLKL and apomorphine (=APO) was detected through surface plasmon resonance (SPR) analysis using Biacore T200 (GE Healthcare). For pH scouting, a buffer consisting of 10 mM sodium acetate (pH 4.0 to 6.0) was used. MLKL protein (Abcam, ab241453), and MLKL N-term (amino acids 1-154) protein that had been purified in a laboratory were immobilized on the surface of a sensor chip CM5 (GE Healthcare) under scouted buffer conditions. To deduce an Rligand value, a coupling process was performed based on the molecular weights of MLKL, MLKL N-term domain (MW ligand), and APO (MW analyte). Oxidized (24 hr, RT incubation) and reduced (+DTT(DL-dithiothreitol)) forms of APO were injected into a running buffer (flow rate: 10 μl/min) consisting of 10 mM HEPES (pH 7.4) at 25° C. A sensorgram was recorded and analyzed in real time using control software provided by the Biacore T200 system itself. Six or more concentrations of APO were used in combination, and each KD value was derived. All run data was calculated using BIAevaluation Software (GE Healthcare).
SPR analysis was used to analyze the interaction pattern between APO and the MLKL protein (Experimental Method 1-10). […] Here, the analysis was performed by binding MLKL and the MLKL N-term domain protein immobilized on a CM5 chip with APO having six concentrations.

MLKL oligomerization = MLKL oligomerization (tetramer and octamer bands) by non-reducing or reducing SDS-PAGE; type: cell-based, human; settings: cytoplasmic and membrane fractions, necroptosis induced with TBZ, FIG. 2 / FIG. 6A
Method: Cells were pretreated with Z-VAD (invivoGen, tlrl-vad) and a compound for 1 hour, and necroptosis was induced with TNF-α (ATGen, TNF0501) and BV6 (Biovision, B1332-5) for the indicated time. The prepared cells were appropriately treated according to analysis (Z-VAD: carbobenzoxy-valyl-alanyl-aspartyl, TNF-α: tumor necrosis factor-α, BV6: 4,4′-(1,6-hexanediyl)bis[N-methyl-L-alanyl-(2S)-2-cyclohexylglycyl-L-prolyl-β-phenyl-L-phenylalaninamide)
Cells were treated with a drug candidate and then collected using centrifugation at 4° C. and 1,500×g for 5 minutes. A supernatant was centrifuged again at 4° C. and 1,500×g for 5 minutes to remove remaining debris, concentrated at 4° C. and 14,000×g for 30 minutes using Amicon ultra-0.5 centrifugal filter unit 10K (Millipore, UFC501096), and stored. […] The extracted protein concentration was measured using a bicinchoninic acid (BCA) protein assay kit (Thermo Fisher Scientific, 23225). […]
To test whether the tetramer and octamer formation of p-MLKL for pore formation in the cell membrane is inhibited by apomorphine (APO), cells that had been treated with each molecule for the indicated time were separated into cytoplasmic and membrane fractions and analyzed through non-reducing or reducing sodium dodecyl sulfate-polyacrylamide gel electrophoresis (SDS-PAGE), and then investigated with specific antibodies (Experimental Method 1-6). […]

Compound: CN1CCc2cccc3c2[C@H]1Cc1ccc(O)c(O)c1-3 [APO, apomorphine]
- Kd (MLKL protein): 12.7 nM
- intensities of the tetramer and octamer bands of MLKL (MLKL oligomerization): decreased
